Reference: US9451775B2, “Heterocyclic compounds as pesticides” (Bayer Intellectual Property GmbH, priority 2008, dated 2016)
Like-named read-outs stand apart in the source and are kept apart here.

Tests used:
[1] = logP determination by HPLC (formic acid method); format: physicochemical; settings: reversed-phase HPLC column (C18), read-out: logP (HCOOH)
Protocol: 1) Description of the method for determining the logP values (formic acid method)
The logP values given in the table were determined in accordance with EEC Directive 79/831 Annex V.A8 by HPLC (High Performance Liquid Chromatography) on a reversed-phase column (C18). Temperature: 55° C.
Mobile phases for the determination in the acidic range (pH 3.4):
Mobile phase A: Acetonitrile+1 ml of formic acid/litre. Mobile phase B: water+0.9 ml of formic acid/litre.
Gradient: from 10% mobile phase A/90% mobile phase B to 95% mobile phase A/5% mobile phase B in 4.25 min.
Calibration was carried out using unbranched alkan-2-ones (having 3 to 16 carbon atoms) with known logP values (determination of the logP values by the retention times using linear interpolation between two successive alkanones). The lambda max values were determined in the maxima of the chromatographic signals using the UV spectra from 200 nm to 400 nm.

[2] = system: green peach aphid (Myzus persicae); test: Myzus test (spray treatment); format: in vivo; settings: foliar, read-out: activity (effect in %, aphids killed)
Protocol: Myzus Test (Spray Treatment)
• Solvents: 78.0 parts by weight of acetone • 1.5 parts by weight of dimethylformamide • Emulsifier: 0.5 part by weight of alkylaryl polyglycol ether
To produce a suitable preparation of active compound, 1 part by weight of active compound is mixed with the stated amounts of solvents and emulsifier, and the concentrate is diluted with emulsifier-containing water to the desired concentration.
Discs of leaves of Chinese cabbage (Brassica pekinensis) which are heavily infested by all stages of the green peach aphid (Myzus persicae) are sprayed with an active compound preparation of the desired concentration.
After the desired period of time, the effect in % is determined. 100% means that all aphids have been killed; 0% means that none of the aphids have been killed.

[3] = pH 3.4, HPLC on reversed-phase column (C18), acidic range (pH 3.4), 55° C.
[4] = application rate of 500 g/ha, sprayed Chinese cabbage leaf discs
[5] = pH 3.4, values printed in the text of the preparation examples, formic acid method

| chromatographic logP [1, 3] | chromatographic logP [1, 5] | SMILES | pest or weed control at 500 g/ha [2, 4] | pest or weed control at 100 g/ha ([2]; application rate of 100 g/ha, sprayed Chinese cabbage leaf discs) | pest or weed control at 500 g/ha ([2]; in Brassica rapa) |
| --- | --- | --- | --- | --- | --- |
| 2.63 | – | Cc1nc(-c2cccnc2)sc1-n1ccc(C(F)(F)F)n1 [Ex. No. 14] | ≥ 80% | – | – |
| 3.31 | – | Cc1nc(-c2cccnc2)sc1-n1ccc(C(F)(F)C(F)(F)F)n1 [Ex. No. 140] | – | ≥ 80% | – |
| 2.3 | 2.3 | Cc1nc(-c2cccnc2)sc1-c1ccn(-c2cnccn2)n1 [Preparation Example 2, 2-[3-(4-Methyl-2-pyridin-3-ylthiazol-5-yl)pyrazol-1-yl]pyrazine] | ≥ 80% | – | – |
| 1.48 | 1.48 | Cc1nc(-c2cccnc2)sc1-n1ccc(-c2ncccn2)n1 [Preparation Example 3, 2-[1-(4-Methyl-2-pyridin-3-ylthiazol-5-yl)-1H-pyrazol-3-yl]pyrimidine] | ≥ 80% | – | – |
| 1.53 | 1.53 | c1cnc(-c2cccc(-c3cnc(-c4cccnc4)s3)n2)nc1 [Preparation Example 5, 2-[6-(2-Pyridin-3-ylthiazol-5-yl)pyridin-2-yl]pyrimidine] | ≥ 80% | – | – |
| 1.56 | 1.56 | Cc1nc(-c2cccnc2)sc1C1=NN(c2ncccn2)CCO1 [Preparation Example 7, 2-(4-Methyl-2-pyridin-3-ylthiazol-5-yl)-4-pyrimidin-2-yl-5,6-dihydro-4H-[1,3,4]oxadiazine] | ≥ 80% | – | – |
| 1.54 | 1.54 | c1cnc(-c2cccc(-c3nnc(-c4cccnc4)s3)n2)nc1 [Preparation Example 10, 2-[6-(5-Pyridin-3-yl-[1,3,4]thiadiazol-2-yl)pyridin-2-yl]pyrimidine] | ≥ 80% | – | – |
| 1 | 1 | Cn1nc(-c2cccnc2)cc1-c1ccn(-c2ncccn2)n1 [Preparation Example 11] | ≥ 80% | – | – |
| 1.29 | – | CON(C)C(=O)c1cccc(-c2nnc(-c3cccnc3)s2)n1 [compound 249] | – | – | – |
| 1.29 | – | O=C(c1cccc(-c2nnc(-c3cccnc3)s2)n1)N1CCOCC1 [compound 250] | – | – | – |
| – | 0.42 | Cn1nc(-c2cccnc2)cc1-c1cc[nH]n1 [drawing 82] | – | – | – |

| SMILES | chromatographic logP [1, 3] | chromatographic logP [1, 5] | pest or weed control at 500 g/ha [2, 4] | pest or weed control at 100 g/ha ([2]; application rate of 100 g/ha, sprayed Chinese cabbage leaf discs) | pest or weed control at 500 g/ha ([2]; in Brassica rapa) |
| --- | --- | --- | --- | --- | --- |
| Cc1nc(-c2cccnc2)sc1-c1ccnc(-c2ncccn2)n1 [Preparation Example 1, 4-(4-Methyl-2-pyridin-3-ylthiazol-5-yl)-[2,2′]bipyrimidinyl] | 1.17 | 1.17 | – | – | ≥ 80% |
| Cc1nc(-c2cccnc2)sc1-c1cccc(-c2nccnn2)n1 [Preparation Example 4, 3-[6-(4-Methyl-2-pyridin-3-ylthiazol-5-yl)pyridin-2-yl]-[1,2,4]triazine] | 1.58 | 1.58 | – | – | ≥ 80% |
| Cc1nc(-c2cccnc2)sc1-c1cccc(-c2ncccn2)n1 [Preparation Example 6, 2-[6-(4-Methyl-2-pyridin-3-ylthiazol-5-yl)pyridin-2-yl]pyrimidine] | 1.73 | 1.75 | – | – | ≥ 80% |
| Cc1nc(-c2cccnc2)sc1-c1cccc(C2=NOCCO2)n1 [Preparation Example 8, 3-[6-(4-Methyl-2-pyridin-3-ylthiazol-5-yl)pyridin-2-yl]-5,6-dihydro-[1,4,2]dioxazine] | 1.82 | 1.81 | – | – | ≥ 80% |
| c1cnc(-c2nccc(-c3nnc(-c4cccnc4)s3)n2)nc1 [Preparation Example 9, 4-(5-Pyridin-3-yl-[1,3,4]thiadiazol-2-yl)-[2,2′]bipyrimidinyl] | 1.07 | 1.07 | – | – | ≥ 80% |
| Cn1nc(-c2cccnc2)cc1-c1ccnc(-c2ncccn2)n1 [Preparation Example 12] | 0.65 | 0.65 | – | – | ≥ 80% |
